According to patent US9446151B2, “In vivo imaging of enzymatic activity” (Caliper Life Sciences, Inc., priority 2011, dated 2016):

Columns and labels:
[1] = tested on: MDA-MB-231-luc2 tumor metastases; conditions: Nu/Nu mouse, three weeks after intracardiac injection of 1 million MDA-MB-231-luc2 cells; IVIS imaging
Experimental: A Nu/Nu mouse was intracardiacally injected with 1 million of MDA-MB-231-luc2 cells. At three weeks, the mouse was imaged with an IVIS spectrum following intraperitoneal injection of luciferin (150 mg/kg). […] At 24 hours after luciferin injection when the bioluminescence signal returned to a base line level, this mouse was injected intravenously with luminol.
As inflammation is involved in a broad range of disease process, including tumor development, the utility of the NAC compositions and methods was also tested for tumor detection. In a systemic metastases model through intracardiac injection of MDA-MB-231-luc tumor, metastatic tumor development in lungs and knee joints was also evaluated using NAC compositions. Briefly, a Nu/Nu mouse was injected intracardiacally with 1 million MDA-MB-231-luc2 tumor cells. At three weeks, the mouse was imaged with an IVIS spectrum following intraperitoneal injection of luciferin (150 mg/kg). At 24 hours after luciferin injection when the bioluminescence signal returned to a base line level, this mouse was injected intravenously with luminol.

[2] = tested on: free radical production in the pulmonary tissues; conditions: LPS 1 mg/kg intratracheal; intravenous probe; imaging 5 minutes after injection; vs non-LPS control mice given luminol/Quantum dot 800 mixture
Experimental: Animals were divided into three groups of animals.
An acute inflammatory response in pulmonary tissues was induced by intratracheal delivery of LPS to mice. In particular, LPS was dissolved in sterile PBS to a concentration of 10 mg/ml. LPS (in 50 μl total volume) was delivered to mice intratracheally with a 22-gauge intubator. The final dose of LPS was 1 mg/kg. […] Imaging was performed at 5 minutes after injection.

Row | Structure (SMILES) | detection of tumor metastases (loci) [1] | increase of NAC / lung signal from the pulmonary tissues as compared to control mice [2]
1 | O=C(O)[C@H]1CSC(c2nc3ccc(O)cc3s2)=N1 [luciferin] | detected in the lungs, knee joints and cranial region | –
2 | Nc1cccc2c(=O)[nH][nH]c(=O)c12 [luminol] | Tumor metastasis at the knee joint was detected | two
